Test systems include A498; ACHN; CAKI-1; HCC 2998; HCT-15; HL-60; HOP-62; HT-29; Hs-578T; IGROV-1; LOX IMVI; MDA-N; Malme-3M; OVCAR-4; OVCAR-8; SF-268; SK-MEL-2; SK-MEL-5; SNB-75; UACC-62.
Test in all cases: NCI-60 cell line screen, 48 h

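1) Cells in 96-well plates. 2) Compound, 48 h, 5 concentrations. 3) Linear interpolation between surrounding doses. 4) Unreached endpoint = highest concentration. At the GI50, growth is halved.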 Activity calls are given as the source filed them. Rule as the data show it: active = GI50 up to about 1.1 µM and inactive = higher.

`CC(C)Cc1ccc(C(C)CC2=CCC(CN(C)C)C2=O)cc1` (stereo not given): the GI50 in the assay on A498 was 18.5 µM (inactive); with ACHN, 16.7 µM (inactive); with CAKI-1 it was 1.84 µM (inactive); in the assay on HCC 2998, 5.19 µM (inactive); in the assay with HCT-15, 2.64 µM; in the assay on HL-60, 1.96 µM (inactive). The GI50 was 21.1 µM (inactive) in the assay with HOP-62; 6.38 µM (inactive) with HT-29; 18.3 µM (inactive) with Hs-578T; 9.51 µM (inactive) in the assay with IGROV-1; 4.97 µM (inactive) with LOX IMVI; 5.75 µM (inactive) in the assay on MDA-N. For the same compound, the GI50 in the assay with Malme-3M was 6.15 µM (inactive); in the assay with OVCAR-4, 20.4 µM (inactive); in the assay with OVCAR-8, 7.41 µM (inactive); in the assay with SF-268, 14.9 µM (inactive); in the assay on SK-MEL-2, 13.2 µM (inactive); with SK-MEL-5, 15.3 µM (inactive). Moreover, the results for the GI50 with SNB-75 and with UACC-62 were 15.8 µM (inactive) and 10 µM (inactive), respectively.
Consider `O=C(CCN1CCCCC1)N1CCc2c([nH]c3ccccc23)C1c1cccnc1` (stereo not given), for which the GI50 in the assay on A498 was 30.5 µM (inactive); in the assay with ACHN, > 85.5 µM (inactive); with CAKI-1 it was > 73.6 µM (inactive); in the assay with HCC 2998, 28 µM (inactive); in the assay on HCT-15, 85.5 µM; in the assay with HL-60 it was 41.2 µM (inactive). The GI50 in the assay on HOP-62 was > 82.2 µM (inactive); with HT-29, 32.4 µM (inactive); in the assay with Hs-578T, 66.4 µM (inactive); in the assay on IGROV-1, > 92 µM (inactive); with LOX IMVI it was 40.6 µM (inactive); in the assay on MDA-N it was 28.1 µM (inactive). Moreover, the GI50 with Malme-3M was 20.8 µM (inactive); in the assay with OVCAR-4, > 91 µM (inactive); in the assay on OVCAR-8 it was 69.3 µM (inactive); with SF-268, 61.4 µM (inactive); in the assay on SK-MEL-2, 18.3 µM (inactive); with SK-MEL-5 it was 21.3 µM (inactive). Also, the GI50 with SNB-75 is 58.3 µM (inactive); in the assay on UACC-62 it was 20.7 µM (inactive).
Consider `COC(=O)[C@@H]1OC(C)(c2ccccc2)O[C@H]1C(=O)OC`, for which the GI50 is > 100 µM (inactive) in the assay on A498; > 100 µM (inactive) in the assay on ACHN; > 100 µM (inactive) in the assay on CAKI-1; 76.4 µM (inactive) with HCC 2998; more than 100 µM in the assay on HCT-15; 4.52 µM (inactive) in the assay on HL-60. In addition, the GI50 in the assay on HOP-62, with HT-29, in the assay with Hs-578T, in the assay on IGROV-1, in the assay with LOX IMVI and with MDA-N was > 100 µM (inactive) throughout. Further, the GI50 with Malme-3M, in the assay with OVCAR-4, in the assay on OVCAR-8, with SF-268, in the assay with SK-MEL-2 and in the assay with SK-MEL-5 was > 100 µM (inactive) in each case. Further, the GI50 in the assay on SNB-75 and with UACC-62 was > 100 µM (inactive) each time.
Regarding `CCCCCC(=O)OC[n+]1ccc(-c2c(COC(=O)NC(C)C)c(COC(=O)NC(C)C)c3n2CCC3)cc1`, the GI50 in the assay on A498 is > 100 µM (inactive); with ACHN, 50.9 µM (inactive); in the assay on CAKI-1, 49.5 µM (inactive); in the assay on HCC 2998, > 100 µM (inactive); in the assay with HCT-15, more than 100 µM; in the assay on HL-60, 37.3 µM (inactive). Also, the GI50 with HOP-62, with HT-29, in the assay with Hs-578T, in the assay with IGROV-1, with LOX IMVI and in the assay on MDA-N was > 100 µM (inactive) in each case. Besides, the GI50 was > 100 µM (inactive) in the assay on Malme-3M; > 100 µM (inactive) with OVCAR-4; > 100 µM (inactive) in the assay on OVCAR-8; > 94.6 µM (inactive) in the assay on SF-268; > 100 µM (inactive) in the assay on SK-MEL-2; > 100 µM (inactive) with SK-MEL-5. For the same compound, the GI50 in the assay on SNB-75 was > 100 µM (inactive); in the assay with UACC-62 it was 26.5 µM (inactive).
`O=[N+]([O-])c1ccc(NN/N=N/c2ccc(-c3nc4ccccc4s3)cc2)c([N+](=O)[O-])c1`: the GI50 was 4.34 µM (inactive) in the assay on A498; 22.2 µM (inactive) in the assay on ACHN; 26.5 µM (inactive) in the assay with CAKI-1; 17.8 µM (inactive) in the assay on HCC 2998; 22.7 µM with HCT-15; 16 µM (inactive) in the assay with HL-60. Also, the GI50 with HOP-62 was 21.9 µM (inactive); in the assay on HT-29, 18.8 µM (inactive); in the assay with Hs-578T, 33.5 µM (inactive); in the assay with IGROV-1, 19.9 µM (inactive); with LOX IMVI, 17.3 µM (inactive); with MDA-N, 19 µM (inactive). The GI50 with Malme-3M was 28.2 µM (inactive); in the assay on OVCAR-4, 24.6 µM (inactive); in the assay on OVCAR-8 it was 24.3 µM (inactive); in the assay on SF-268, 26.5 µM (inactive); in the assay with SK-MEL-2, 21 µM (inactive); in the assay with SK-MEL-5, 15.3 µM (inactive). Further, the GI50 in the assay with SNB-75 was 24.8 µM (inactive); in the assay with UACC-62, 14 µM (inactive).
For the compound `CC(C)(C)[Si](C)(C)OCC1OC(n2cnc3c(=O)[nH]cnc32)CC1O` (stereo not given), the GI50 with A498 is > 100 µM (inactive); with ACHN it was > 100 µM (inactive); with CAKI-1 it was > 100 µM (inactive); with HCC 2998, > 100 µM (inactive); with HCT-15, more than 100 µM; with HL-60, > 100 µM (inactive). Moreover, the GI50 in the assay on HOP-62, with HT-29, in the assay with Hs-578T, in the assay on IGROV-1, with LOX IMVI and with MDA-N was > 100 µM (inactive) throughout. For the same compound, the GI50 is > 100 µM (inactive) in the assay with Malme-3M; > 100 µM (inactive) with OVCAR-4; > 100 µM (inactive) in the assay with OVCAR-8; > 100 µM (inactive) in the assay on SF-268; > 100 µM (inactive) with SK-MEL-2; 60.5 µM (inactive) in the assay on SK-MEL-5. For the same compound, the GI50 with SNB-75 is 20.8 µM (inactive); with UACC-62, > 100 µM (inactive).
`CCCCN1C(=O)CC2[C@@H]3CCc4cc(OC)ccc4C3CC[C@]2(C)C1=O` (stereo not given in full): the GI50 was > 10 µM (inactive) in the assay with A498; > 10 µM (inactive) in the assay on ACHN; > 10 µM (inactive) in the assay with CAKI-1; > 10 µM (inactive) with HCC 2998; more than 10 µM in the assay on HCT-15; 5.04 µM (inactive) with HL-60. For the same compound, the GI50 with HOP-62, in the assay on HT-29, in the assay on Hs-578T, with IGROV-1, with LOX IMVI and in the assay on MDA-N was > 10 µM (inactive) in each case. The GI50 with Malme-3M, with OVCAR-4, in the assay with OVCAR-8, with SF-268, with SK-MEL-2 and with SK-MEL-5 was > 10 µM (inactive) throughout. Besides, the GI50 in the assay on SNB-75 was 3.1 µM (inactive); in the assay on UACC-62, > 10 µM (inactive).
As for `Nc1c(-c2cccc3ccccc23)c2ccc([N+](=O)[O-])cc2c(=O)n1-c1nc2ccccc2s1`, the GI50 in the assay on A498 was 7.66 µM (inactive); with ACHN it was 3.16 µM (inactive); in the assay with CAKI-1, 5.15 µM (inactive); in the assay with HCC 2998, 7.14 µM (inactive); in the assay on HCT-15 it was 6.38 µM; in the assay with HL-60, 2.18 µM (inactive). The GI50 in the assay with HOP-62 is 7.21 µM (inactive); with HT-29, 5.02 µM (inactive); in the assay on Hs-578T, 2.98 µM (inactive); in the assay on IGROV-1, 3.41 µM (inactive); with LOX IMVI it was 4.4 µM (inactive); in the assay with MDA-N, 7.13 µM (inactive). In addition, the GI50 was 3.58 µM (inactive) in the assay on Malme-3M; 9.82 µM (inactive) with OVCAR-4; 2.16 µM (inactive) in the assay on OVCAR-8; 3.18 µM (inactive) with SF-268; 3.82 µM (inactive) with SK-MEL-2; 6.73 µM (inactive) in the assay with SK-MEL-5. In addition, the GI50 is 0.875 µM (active) in the assay on SNB-75 and 5.6 µM (inactive) with UACC-62.
As to `CCN(CC)CCNc1ccc2ncn3c4ccc(O)cc4c(=O)c1c23`, the GI50 was 1.12 µM (inactive) with A498; 0.0499 µM (active) in the assay on ACHN; 0.0649 µM (active) in the assay on CAKI-1; 2.51 µM (inactive) with HCC 2998; 0.214 µM in the assay on HCT-15; 0.131 µM (active) with HL-60. Besides, the GI50 was 0.141 µM (active) in the assay with HOP-62; 0.679 µM (active) in the assay with HT-29; 3.11 µM (inactive) in the assay on Hs-578T; 0.479 µM (active) with IGROV-1; 0.327 µM (active) with LOX IMVI; 4.19 µM (inactive) with MDA-N. Besides, the GI50 in the assay with Malme-3M is 1.48 µM (inactive); in the assay with OVCAR-4, 1.28 µM (inactive); in the assay on OVCAR-8, 0.561 µM (active); in the assay on SF-268, 0.721 µM (active); in the assay on SK-MEL-2 it was 6.78 µM (inactive); in the assay with SK-MEL-5, 0.289 µM (active). Further, the GI50 with SNB-75 was 0.652 µM (active); in the assay on UACC-62, 1.25 µM (inactive).
Turning to `COc1ccc2nc3c([N+](=O)[O-])ccc4c3c(c2c1)N(CCCN(C)C)C(=S)N4CCCN(C)C`, the GI50 with A498 was 17.7 µM (inactive); with ACHN, 4.1 µM (inactive); in the assay with CAKI-1 it was 14.5 µM (inactive); in the assay with HCC 2998, 2.9 µM (inactive); in the assay on HCT-15 it was 3.4 µM; in the assay on HL-60, 66.4 µM (inactive). Further, the GI50 with HOP-62 is 5.19 µM (inactive); in the assay on HT-29, 2.22 µM (inactive); with Hs-578T it was 7.94 µM (inactive); in the assay with IGROV-1, 2.97 µM (inactive); in the assay on LOX IMVI, 3.28 µM (inactive); with MDA-N it was 8.13 µM (inactive). Also, the GI50 with Malme-3M is 2.65 µM (inactive); in the assay with OVCAR-4, 8.05 µM (inactive); in the assay on OVCAR-8, 5.79 µM (inactive); with SF-268 it was 4.46 µM (inactive); in the assay with SK-MEL-2, 16.1 µM (inactive); with SK-MEL-5, 4.94 µM (inactive). The GI50 was 8.41 µM (inactive) with SNB-75 and 16 µM (inactive) in the assay on UACC-62.

For the origin of these results see ChEMBL document CHEMBL1201862, “PubChem BioAssay data set” (2004).
